# From PMC4260745, “Modulation of A1 and A2B adenosine receptor activity: a new strategy to sensitise glioblastoma stem cells to chemotherapy” (Cell Death & Disease, 2014)
# Target: T1, A2BAR (A2B adenosine receptor) (Homo sapiens, UniProt P29275)
# T1 construct: gene ADORA2B
# T1 sequence (P29275 1-332): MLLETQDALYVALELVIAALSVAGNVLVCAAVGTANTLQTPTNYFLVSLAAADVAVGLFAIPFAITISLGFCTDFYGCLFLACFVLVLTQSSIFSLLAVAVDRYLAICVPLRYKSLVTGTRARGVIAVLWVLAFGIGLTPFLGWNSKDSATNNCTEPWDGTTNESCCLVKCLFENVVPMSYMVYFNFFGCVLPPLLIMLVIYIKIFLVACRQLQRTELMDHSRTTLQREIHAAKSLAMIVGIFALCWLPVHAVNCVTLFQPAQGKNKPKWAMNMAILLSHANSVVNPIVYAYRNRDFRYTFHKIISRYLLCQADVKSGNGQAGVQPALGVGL
# Test: […]GTPγS binding, membranes of U343MG-derived CSCs (endogenous receptor)
# Format: biochemical
compound,measurement,value
"N#Cc1c(N)nc(SCC(N)=O)c(C#N)c1-c1ccc(OCC2CC2)cc1 [BAY606583, 2-[6-Amino-3,5-dicyano-4-[4-(cyclopropylmethoxy)-phenyl]pyridin-2-ylsulfanyl]acetamide]",EC50,1.9 ± 0.2 nM
